One data set deals with HTLV-IIIB. Description: Inhibitory effect on the destruction of T-cells due to HIV (MTT), HTLV-IIIB. The format is cell-based, HIV (human immunodeficiency virus). Conditions: MT-4 cells. The procedure:
(§1) 1. Inhibitory effect on the destruction of T-cells due to HIV
(§2) Various concentrations of 3,3'-[1,10-decanediyl-bis(carbonylamino)]-bis(1,5-naphthalenedisulfonc acid) were added to each medium suspended 1×10^5 cells/ml of MT-4 cells, which was infected with HTLV-IIIB or HIV-1HE. Infection was made at an infection number of MOI=0.02. Then, after cultured for 4 days at 37° C., the number of surviving cells was quantitatively determined by dyeing surviving cells with MTT dye. Moreover, at the same time, by dyeing also non-infected cells with MTT dye, the toxicity of sample to cells was calculated.

In data set [1] the test system is MOLT-4 cells infected with HTLV-IIIB. Kind of data set: Inhibition of the formation of giant cells. Conditions: co-culture of HTLV-IIIB infected and non-infected MOLT-4 cells, 24 hours, counted under microscope. Format: cell-based. On the procedure: 3. Inhibition of the formation of giant cells
MOLT-4 cells infected with HTLV-IIIB and MOLT-4 cells without infection were cultured each in same number (5×10^4) in medium with 3,3'-[1,10-decanediyl-bis(carbonylamino)]-bis(1,5-naphthalenedisulfonic acid) added and, after cultured for 24 hours, the number of giant cells formed was counted under microscope.

Another data set concerns HIV-1HE. Kind of data set: Inhibitory effect on the destruction of T-cells due to HIV (MTT), HIV-1HE. Format: cell-based, HIV (human immunodeficiency virus). Conditions: MT-4 cells. On the procedure: as §1, §2
The nature of data set [2]: Toxicity of sample to non-infected cells (MTT). Conditions: human, mt-4 cells, non-infected MT-4 cells, read-out: CC50 = 50% toxic concentration. Format: cell-based. The procedure:
as §2

In a further data set the test system is bone marrow cells. Conditions: background statement; cited from earlier work.
[3] abbreviates: Human immunodeficiency virus 1, MT4, 96 h, MOI=0.02, 4 days at 37° C., MTT, read-out: EC50 = Effective concentration for inhibition of 50% cells.

In brackets after ≈: the same amount, converted by molar mass. Read-outs that look alike come from different tables or passages of the source.

Results on 2 compounds are retold here after US5264621A, “Anti-virus agent” (Sanyo-Kokusaku Pulp Co., Ltd., priority 1991, dated 1993).

With `O=C(CCCCCCCCCCC(=O)Nc1cc(S(=O)(=O)O)c2cccc(S(=O)(=O)O)c2c1)Nc1cc(S(=O)(=O)O)c2cccc(S(=O)(=O)O)c2c1` [3,3'-[1,10-decanediyl-bis(carbonylamino)]-bis(1,5-naphthalenedisulfonic acid)], the values for the EC50 with HTLV-IIIB (setting [3]) and with HIV-1HE (setting [3]) were 46 µg/mL (≈ 57.4 µM) and 40.7 µg/mL (≈ 50.8 µM), respectively. Besides, the entries for the “T.I. = Selective toxicity (CC50 /EC50)” value in the data set on HTLV-IIIB and in the data set with HIV-1HE were 8.3 and 12.3, respectively. Also, the “inhibitory activity against formation of giant cells” value in data set [1] is on record as “recognized”. Further, the CC50 at 96 h in data set [2] (HIV-1HE system (No. 2)) worked out at 500 µg/mL (≈ 624 µM); in data set [2] (HTLV-IIIB system (No. 1)), 383 µg/mL (≈ 478 µM).
As for `Cc1cn([C@H]2C[C@H](N=[N+]=[N-])[C@@H](CO)O2)c(=O)[nH]c1=O` [AZT, azido thymidine], in the data set on bone marrow cells, the side effects entry is reported as “inhibition of the growth of bone marrow cells”.
